“And” between values parts separate entries of the source, which are not always exact repeats. Equal values may be shown once.
Key:
Conditions in all cases: pH 7.5
[1] = molecular target: Serine/threonine-protein kinase PAK 5 (Homo sapiens) (UniProt Q9P286); assay: In vitro activity assay using various kinases.
[2] = molecular target: T1, Interleukin-1 receptor-associated kinase 4 (Homo sapiens, UniProt Q9NWZ3); assay: In Vitro Activity Assay
T1 sequence (Q9NWZ3 whole entry): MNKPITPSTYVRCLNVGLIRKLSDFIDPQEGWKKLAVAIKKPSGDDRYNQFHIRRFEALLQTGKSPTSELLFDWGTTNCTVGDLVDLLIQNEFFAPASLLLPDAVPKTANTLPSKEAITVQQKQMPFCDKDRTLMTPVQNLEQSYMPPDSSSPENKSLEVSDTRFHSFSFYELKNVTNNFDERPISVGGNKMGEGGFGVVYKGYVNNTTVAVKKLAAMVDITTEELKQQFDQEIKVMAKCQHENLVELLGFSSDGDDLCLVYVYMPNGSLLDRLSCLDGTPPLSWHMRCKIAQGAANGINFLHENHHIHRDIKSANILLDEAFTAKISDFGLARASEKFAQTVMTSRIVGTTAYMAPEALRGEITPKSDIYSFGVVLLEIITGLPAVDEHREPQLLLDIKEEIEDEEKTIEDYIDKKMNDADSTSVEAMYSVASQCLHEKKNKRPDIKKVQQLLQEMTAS
Excerpt: (§1) In vitro activity assay using various kinases.

[3] = molecular target: T2, Mitogen-activated protein kinase kinase kinase 5 (Homo sapiens, UniProt Q99683); assay: In Vitro Activity Assay
T2 sequence (Q99683 whole entry): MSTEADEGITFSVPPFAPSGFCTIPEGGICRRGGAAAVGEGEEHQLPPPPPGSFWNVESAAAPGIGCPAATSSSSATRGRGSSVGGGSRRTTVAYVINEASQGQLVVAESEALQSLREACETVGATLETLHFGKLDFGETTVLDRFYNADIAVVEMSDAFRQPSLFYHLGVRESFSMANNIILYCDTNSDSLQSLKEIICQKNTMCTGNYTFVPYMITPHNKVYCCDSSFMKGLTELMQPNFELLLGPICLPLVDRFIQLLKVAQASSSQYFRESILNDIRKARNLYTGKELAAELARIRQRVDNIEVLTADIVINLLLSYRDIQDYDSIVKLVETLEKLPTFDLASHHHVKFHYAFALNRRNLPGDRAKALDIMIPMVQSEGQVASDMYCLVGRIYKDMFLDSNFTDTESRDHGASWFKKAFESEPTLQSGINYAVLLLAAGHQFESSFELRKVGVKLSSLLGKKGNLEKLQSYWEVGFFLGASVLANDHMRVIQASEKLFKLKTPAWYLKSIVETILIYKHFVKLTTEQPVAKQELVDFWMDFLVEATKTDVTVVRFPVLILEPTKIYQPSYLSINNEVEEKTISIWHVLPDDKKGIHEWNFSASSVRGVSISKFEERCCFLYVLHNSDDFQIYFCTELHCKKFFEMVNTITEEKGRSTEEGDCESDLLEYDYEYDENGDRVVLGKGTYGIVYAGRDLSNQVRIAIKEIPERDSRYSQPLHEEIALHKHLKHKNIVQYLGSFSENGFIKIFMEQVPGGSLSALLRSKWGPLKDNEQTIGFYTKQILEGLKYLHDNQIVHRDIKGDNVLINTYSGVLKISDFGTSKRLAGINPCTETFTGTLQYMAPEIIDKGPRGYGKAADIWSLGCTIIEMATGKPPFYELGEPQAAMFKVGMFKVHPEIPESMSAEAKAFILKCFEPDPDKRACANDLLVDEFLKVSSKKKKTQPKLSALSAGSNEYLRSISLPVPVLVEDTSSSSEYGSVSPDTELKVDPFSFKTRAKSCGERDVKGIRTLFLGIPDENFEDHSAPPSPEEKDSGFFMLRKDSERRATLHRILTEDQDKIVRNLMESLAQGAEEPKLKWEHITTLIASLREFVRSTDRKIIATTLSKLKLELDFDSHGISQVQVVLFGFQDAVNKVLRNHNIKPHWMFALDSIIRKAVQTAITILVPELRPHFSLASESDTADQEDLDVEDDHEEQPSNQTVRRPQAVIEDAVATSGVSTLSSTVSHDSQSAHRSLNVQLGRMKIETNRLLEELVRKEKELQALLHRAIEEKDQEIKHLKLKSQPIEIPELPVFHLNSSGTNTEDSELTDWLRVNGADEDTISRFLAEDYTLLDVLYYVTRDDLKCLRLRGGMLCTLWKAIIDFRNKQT
Excerpt: as §1

[4] = molecular target: Proto-oncogene tyrosine-protein kinase Src (Gallus gallus, UniProt P00523); assay: In Vitro Activity Assay
Excerpt: as §1

[5] = molecular target: cAMP-dependent protein kinase catalytic subunit alpha (Homo sapiens, UniProt P17612); assay: In Vitro Activity Assay
Excerpt: as §1

[6] = molecular target: Mitogen-activated protein kinase 1 (Homo sapiens, UniProt P28482); assay: In Vitro Activity Assay
Excerpt: as §1

[7] = molecular target: Tyrosine-protein kinase HCK (Homo sapiens, UniProt P08631); assay: In Vitro Activity Assay
Tyrosine-protein kinase HCK, sequence (P08631 whole entry): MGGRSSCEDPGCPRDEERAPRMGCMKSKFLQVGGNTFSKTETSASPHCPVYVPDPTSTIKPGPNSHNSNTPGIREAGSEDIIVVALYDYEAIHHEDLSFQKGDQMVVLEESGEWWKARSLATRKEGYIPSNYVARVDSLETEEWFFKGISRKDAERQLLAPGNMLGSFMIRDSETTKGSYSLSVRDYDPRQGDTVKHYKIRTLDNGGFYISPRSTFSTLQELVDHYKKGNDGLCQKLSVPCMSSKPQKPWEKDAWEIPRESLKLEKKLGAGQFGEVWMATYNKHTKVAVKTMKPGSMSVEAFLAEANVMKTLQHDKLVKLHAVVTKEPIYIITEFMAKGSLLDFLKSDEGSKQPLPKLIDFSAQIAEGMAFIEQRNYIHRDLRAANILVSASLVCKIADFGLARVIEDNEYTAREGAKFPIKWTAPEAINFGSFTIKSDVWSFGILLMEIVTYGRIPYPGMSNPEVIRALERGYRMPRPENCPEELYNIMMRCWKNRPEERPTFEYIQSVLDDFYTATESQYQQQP
Excerpt: as §1

[8] = molecular target: Serine/threonine-protein kinase PAK 4 (Homo sapiens, UniProt O96013); assay: In Vitro Activity Assay
Serine/threonine-protein kinase PAK 4, sequence (O96013 whole entry): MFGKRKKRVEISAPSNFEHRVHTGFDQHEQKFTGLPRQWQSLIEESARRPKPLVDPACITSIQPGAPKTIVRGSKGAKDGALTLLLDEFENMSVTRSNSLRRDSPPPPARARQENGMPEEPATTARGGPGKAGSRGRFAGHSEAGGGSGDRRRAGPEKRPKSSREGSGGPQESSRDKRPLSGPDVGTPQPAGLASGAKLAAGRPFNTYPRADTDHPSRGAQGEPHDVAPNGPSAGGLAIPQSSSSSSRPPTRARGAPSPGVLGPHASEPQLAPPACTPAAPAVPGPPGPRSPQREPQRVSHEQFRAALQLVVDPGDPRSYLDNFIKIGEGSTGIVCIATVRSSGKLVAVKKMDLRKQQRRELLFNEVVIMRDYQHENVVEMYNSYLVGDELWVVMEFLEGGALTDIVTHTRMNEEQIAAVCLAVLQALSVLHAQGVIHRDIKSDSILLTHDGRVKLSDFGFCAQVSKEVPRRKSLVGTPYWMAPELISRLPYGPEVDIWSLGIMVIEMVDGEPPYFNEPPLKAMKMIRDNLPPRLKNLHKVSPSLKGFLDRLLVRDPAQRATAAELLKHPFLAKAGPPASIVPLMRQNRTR
Excerpt: as §1

[9] = molecular target: Tyrosine-protein kinase Lck (Homo sapiens, UniProt P06239); assay: In Vitro Activity Assay
Tyrosine-protein kinase Lck, sequence (P06239 whole entry): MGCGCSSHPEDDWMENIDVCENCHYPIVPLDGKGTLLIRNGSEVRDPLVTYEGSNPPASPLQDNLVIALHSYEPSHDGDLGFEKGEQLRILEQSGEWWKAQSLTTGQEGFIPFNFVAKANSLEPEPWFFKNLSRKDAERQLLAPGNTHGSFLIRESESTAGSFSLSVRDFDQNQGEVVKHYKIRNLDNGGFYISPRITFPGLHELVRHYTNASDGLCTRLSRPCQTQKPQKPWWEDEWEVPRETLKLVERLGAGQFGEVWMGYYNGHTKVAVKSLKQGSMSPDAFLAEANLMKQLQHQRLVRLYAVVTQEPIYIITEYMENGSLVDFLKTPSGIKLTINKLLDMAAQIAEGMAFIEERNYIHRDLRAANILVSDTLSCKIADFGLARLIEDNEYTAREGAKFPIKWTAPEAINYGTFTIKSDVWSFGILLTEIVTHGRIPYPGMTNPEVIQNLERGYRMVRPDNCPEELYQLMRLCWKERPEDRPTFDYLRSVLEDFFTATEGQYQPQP
Excerpt: as §1

[10] = molecular target: Dual specificity protein kinase CLK1 (Homo sapiens, UniProt P49759); assay: In Vitro Activity Assay
Dual specificity protein kinase CLK1, sequence (P49759 whole entry): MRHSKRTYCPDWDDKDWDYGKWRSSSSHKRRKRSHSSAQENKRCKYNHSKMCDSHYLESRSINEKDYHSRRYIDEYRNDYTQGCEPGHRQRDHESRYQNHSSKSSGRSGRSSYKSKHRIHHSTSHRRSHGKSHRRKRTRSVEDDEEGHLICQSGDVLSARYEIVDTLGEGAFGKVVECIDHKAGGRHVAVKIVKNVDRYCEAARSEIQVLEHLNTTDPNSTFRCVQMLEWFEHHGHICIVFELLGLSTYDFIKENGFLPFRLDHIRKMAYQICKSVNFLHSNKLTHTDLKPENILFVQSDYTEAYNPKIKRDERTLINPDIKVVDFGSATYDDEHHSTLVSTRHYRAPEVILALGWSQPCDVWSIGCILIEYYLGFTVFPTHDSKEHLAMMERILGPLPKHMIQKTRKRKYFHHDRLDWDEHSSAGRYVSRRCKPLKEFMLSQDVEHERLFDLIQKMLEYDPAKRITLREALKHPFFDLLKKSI
Excerpt: as §1

[11] = molecular target: Tyrosine-protein kinase CSK (Homo sapiens, UniProt P41240); assay: In Vitro Activity Assay
Tyrosine-protein kinase CSK, sequence (P41240 whole entry): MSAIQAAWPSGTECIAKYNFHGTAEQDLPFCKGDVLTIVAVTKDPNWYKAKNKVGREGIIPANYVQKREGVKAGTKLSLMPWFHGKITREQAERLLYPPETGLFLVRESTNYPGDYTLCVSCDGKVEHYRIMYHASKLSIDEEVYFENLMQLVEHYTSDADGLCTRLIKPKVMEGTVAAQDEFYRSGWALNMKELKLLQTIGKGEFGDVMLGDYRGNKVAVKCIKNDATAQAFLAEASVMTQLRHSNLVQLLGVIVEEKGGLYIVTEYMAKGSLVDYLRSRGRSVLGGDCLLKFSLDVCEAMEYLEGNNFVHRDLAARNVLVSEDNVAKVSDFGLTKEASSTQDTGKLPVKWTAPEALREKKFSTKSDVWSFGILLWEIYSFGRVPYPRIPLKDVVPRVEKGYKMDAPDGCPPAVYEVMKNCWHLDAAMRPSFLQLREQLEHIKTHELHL
Excerpt: as §1

[12] = molecular target: Tyrosine-protein kinase ABL1 (Homo sapiens, UniProt P00519); assay: In Vitro Activity Assay
Tyrosine-protein kinase ABL1, sequence (P00519 whole entry): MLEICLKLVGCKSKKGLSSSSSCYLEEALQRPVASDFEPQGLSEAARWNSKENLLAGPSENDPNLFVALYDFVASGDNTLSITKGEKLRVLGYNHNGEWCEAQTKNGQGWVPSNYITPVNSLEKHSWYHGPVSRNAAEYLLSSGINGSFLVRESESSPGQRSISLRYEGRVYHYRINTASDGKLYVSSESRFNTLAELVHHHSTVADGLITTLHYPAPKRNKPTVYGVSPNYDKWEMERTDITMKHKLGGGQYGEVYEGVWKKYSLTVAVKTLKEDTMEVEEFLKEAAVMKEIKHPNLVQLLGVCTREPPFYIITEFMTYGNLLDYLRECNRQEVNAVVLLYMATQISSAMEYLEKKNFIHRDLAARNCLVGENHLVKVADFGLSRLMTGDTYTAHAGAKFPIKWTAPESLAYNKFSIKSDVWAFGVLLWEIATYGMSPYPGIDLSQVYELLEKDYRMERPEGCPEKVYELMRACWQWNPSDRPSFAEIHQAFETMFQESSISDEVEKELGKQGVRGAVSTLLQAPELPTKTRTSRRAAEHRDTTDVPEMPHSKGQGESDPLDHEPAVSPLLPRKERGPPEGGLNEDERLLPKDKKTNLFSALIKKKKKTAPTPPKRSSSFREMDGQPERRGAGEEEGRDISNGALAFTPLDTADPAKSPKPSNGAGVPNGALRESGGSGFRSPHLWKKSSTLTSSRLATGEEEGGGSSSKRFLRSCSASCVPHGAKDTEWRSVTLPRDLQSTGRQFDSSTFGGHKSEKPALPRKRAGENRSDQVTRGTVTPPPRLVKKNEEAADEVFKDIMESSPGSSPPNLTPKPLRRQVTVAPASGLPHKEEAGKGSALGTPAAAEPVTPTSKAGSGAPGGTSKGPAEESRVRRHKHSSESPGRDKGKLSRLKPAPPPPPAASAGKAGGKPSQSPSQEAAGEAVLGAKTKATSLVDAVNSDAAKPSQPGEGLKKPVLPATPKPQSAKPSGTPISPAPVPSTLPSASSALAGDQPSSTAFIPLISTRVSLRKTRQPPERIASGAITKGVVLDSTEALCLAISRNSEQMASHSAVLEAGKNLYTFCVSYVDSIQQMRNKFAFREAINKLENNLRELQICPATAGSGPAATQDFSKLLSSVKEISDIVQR
Excerpt: as §1

[13] = molecular target: Mitogen-activated protein kinase 14 (Homo sapiens, UniProt Q16539); assay: In Vitro Activity Assay
Mitogen-activated protein kinase 14, sequence (Q16539 whole entry): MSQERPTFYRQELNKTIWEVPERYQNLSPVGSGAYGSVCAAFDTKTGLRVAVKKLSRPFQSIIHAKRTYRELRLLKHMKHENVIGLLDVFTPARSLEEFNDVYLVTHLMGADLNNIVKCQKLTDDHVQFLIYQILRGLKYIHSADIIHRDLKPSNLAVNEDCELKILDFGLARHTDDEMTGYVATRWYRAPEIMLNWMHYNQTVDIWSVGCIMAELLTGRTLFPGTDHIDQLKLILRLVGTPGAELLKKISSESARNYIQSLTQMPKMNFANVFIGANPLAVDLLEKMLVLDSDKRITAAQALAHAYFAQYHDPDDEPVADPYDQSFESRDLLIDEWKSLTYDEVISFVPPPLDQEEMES
Excerpt: as §1

[14] = molecular target: T3, Tyrosine-protein kinase ABL1 [1-999,E255V] (Homo sapiens, UniProt P00519, E255V); assay: In Vitro Activity Assay
T3 construct: 1-999
Excerpt: as §1

[15] = molecular target: T4, Ephrin type-A receptor 3 [1-975] (Homo sapiens, UniProt P29320); assay: In Vitro Activity Assay
T4 construct: 1-975
T4 sequence (P29320 whole entry): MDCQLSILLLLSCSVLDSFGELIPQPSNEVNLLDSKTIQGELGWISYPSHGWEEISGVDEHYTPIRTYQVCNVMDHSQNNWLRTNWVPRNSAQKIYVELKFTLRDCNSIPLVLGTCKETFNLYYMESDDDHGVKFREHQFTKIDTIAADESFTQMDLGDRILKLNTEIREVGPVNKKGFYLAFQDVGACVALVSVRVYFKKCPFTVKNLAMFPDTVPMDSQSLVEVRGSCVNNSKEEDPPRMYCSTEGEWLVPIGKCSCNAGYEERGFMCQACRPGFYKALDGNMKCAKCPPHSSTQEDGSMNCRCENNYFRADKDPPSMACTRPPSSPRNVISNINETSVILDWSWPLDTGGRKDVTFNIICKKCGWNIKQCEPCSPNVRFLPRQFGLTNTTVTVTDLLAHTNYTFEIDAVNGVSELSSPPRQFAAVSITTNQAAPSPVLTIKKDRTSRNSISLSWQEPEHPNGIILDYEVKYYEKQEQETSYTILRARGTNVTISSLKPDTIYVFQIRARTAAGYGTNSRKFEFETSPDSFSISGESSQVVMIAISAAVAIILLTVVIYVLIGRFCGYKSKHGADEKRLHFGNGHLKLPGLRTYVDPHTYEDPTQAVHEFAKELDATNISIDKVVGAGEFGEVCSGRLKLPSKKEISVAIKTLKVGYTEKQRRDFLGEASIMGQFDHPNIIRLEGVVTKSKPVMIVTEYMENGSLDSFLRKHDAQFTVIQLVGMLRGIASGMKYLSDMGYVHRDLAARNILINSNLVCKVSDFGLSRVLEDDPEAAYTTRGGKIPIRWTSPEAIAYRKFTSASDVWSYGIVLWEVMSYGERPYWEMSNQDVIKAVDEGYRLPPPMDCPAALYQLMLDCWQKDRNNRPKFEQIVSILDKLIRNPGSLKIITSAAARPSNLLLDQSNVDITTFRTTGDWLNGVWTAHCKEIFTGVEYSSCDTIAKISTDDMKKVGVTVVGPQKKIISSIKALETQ
Excerpt: as §1

[16] = molecular target: T5, Tyrosine-protein kinase ABL1 [1-999,Y253H] (Homo sapiens, UniProt P00519, Y253H); assay: In Vitro Activity Assay
T5 construct: 1-999
Excerpt: as §1

Serine/threonine-protein kinase PAK 5 (Homo sapiens), sequence (Q9P286 whole entry, looked up): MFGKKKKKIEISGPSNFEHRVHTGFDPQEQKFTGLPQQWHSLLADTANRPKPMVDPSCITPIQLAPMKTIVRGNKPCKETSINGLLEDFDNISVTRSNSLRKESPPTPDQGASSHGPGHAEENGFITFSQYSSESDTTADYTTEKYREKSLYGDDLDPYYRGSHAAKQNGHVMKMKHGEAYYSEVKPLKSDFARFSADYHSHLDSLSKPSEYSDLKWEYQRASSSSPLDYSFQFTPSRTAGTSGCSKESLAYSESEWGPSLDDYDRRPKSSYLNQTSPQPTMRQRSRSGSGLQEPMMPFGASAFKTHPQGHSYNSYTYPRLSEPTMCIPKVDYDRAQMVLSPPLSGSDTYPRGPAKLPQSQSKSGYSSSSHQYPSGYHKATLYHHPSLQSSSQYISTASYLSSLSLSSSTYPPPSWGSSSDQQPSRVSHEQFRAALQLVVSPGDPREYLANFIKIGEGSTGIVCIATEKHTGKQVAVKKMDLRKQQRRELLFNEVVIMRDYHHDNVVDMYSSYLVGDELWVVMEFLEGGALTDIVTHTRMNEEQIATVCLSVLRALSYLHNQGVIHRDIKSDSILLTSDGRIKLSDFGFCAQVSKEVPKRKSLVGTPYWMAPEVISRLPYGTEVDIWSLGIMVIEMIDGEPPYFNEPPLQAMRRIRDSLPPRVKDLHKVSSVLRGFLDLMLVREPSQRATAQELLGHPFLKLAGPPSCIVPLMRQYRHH

| SMILES | IC50 [1] [µM] | IC50 [2] [µM] | IC50 [3] [µM] | IC50 [4] [µM] | IC50 [5] [µM] | IC50 [6] [µM] | IC50 [7] [µM] | IC50 [8] [µM] | IC50 [9] [µM] | IC50 [10] [µM] | IC50 [11] [µM] | IC50 [12] [µM] | IC50 [13] [µM] | other results |
| --- | --- | --- | --- | --- | --- | --- | --- | --- | --- | --- | --- | --- | --- | --- |
| Cc1ccc(NC(=O)c2cccc(C(F)(F)F)c2)cc1Nc1ncccc1-c1ncnc(Nc2ccc(OCCNC(=O)COCCOCCOCCOCCN)cc2)n1 [Amine compound, 12a] | > 10 | > 10 | > 10 | 0.0033 | > 10 | > 10 | 0.0096 | > 10 | < 0.01 | > 10 | 0.0163 | 0.0066 | < 0.013 |  |
| Cc1ccc(NC(=O)c2cccc(C(F)(F)F)c2)cc1Nc1ncccc1-c1cc(Nc2ccc(OCCNC(=O)COCCOCCOCCOCCN)cc2)ncn1 [Amine compound, 13a] | > 10 | > 10 | > 10 | 0.0057 | > 10 | > 10 | 0.0063 | > 10 | < 0.01 | > 10 | 0.14 | 0.0066 | < 0.013 |  |
| Cc1ccc(NC(=O)c2cccc(C(F)(F)F)c2)cc1Nc1ncccc1-c1ncnc(Nc2ccc(OCCNC(=O)CCCCNC(=O)CCC3=[N+]4B(F)n5c(C)cc(C)c5C=C4C=C3)cc2)n1 [BODIPY-labeled probe, 4a] |  |  |  | 0.0254 |  |  |  |  |  |  |  |  | 0.0255 | Kd [1]: > 1 µM; Kd [3]: > 1 µM; Kd [4]: 0.013 µM and 0.011 µM; Kd [7]: 0.0087 µM; Kd [8]: > 1 µM; Kd [14]: 0.045 µM; Kd [9]: 0.02 µM; Kd [15]: 0.027 µM; Kd [10]: > 1 µM; Kd [11]: 0.017 µM; Kd [12]: 0.0099 µM; Kd [13]: 0.035 µM; Kd [16]: 0.0094 µM |

Reference: BindingDB's records for doi:10.1016/j.chembiol.2010.01.008 (University of Washington, 2010)
